Source: US20170056561A1, “COMPOSITIONS FOR THE TREATMENT OF JOINTS” (CorMedix Inc., priority 2015, published 2017)

How the values were obtained:
[1] = test system: Stapylococcus aureus strain SA 113; assay: Solution exposure of HA/taurolidine hydrogels to living cultures (bacteria kill); assay type: cell-based; details: 20 μl early phase culture in 980 μl formulation
Description: (§1) The following evaluations were done to assess the performance of gels comprising hyaluronic acid and taurolidine. Solution exposure of the hyaluronic acid/taurolidine hydrogels, immersed in early phase concentrations of 2 test microorganisms, were conducted. Additionally, the physical properties of the hydrogels were assessed to determine their shear/thixotropic properties.
(§2) In this study, two strains of bacteria, Pseudomonas aeruginosa (PAO1) and Stapylococcus aureus strain SA 113), were evaluated for total kill of each of the strains after 4 and 24 hours of exposure. 20 μl of early phase culture of each strain was placed in 980 μl of each hyaluronic acid/taurolidine formulation. Samples of remaining bacteria concentrations were determined for the samples after 4 and 24 hours of exposure. Four controls were prepared, one control without hyaluronic acid and three other controls with different molecular weights of hyaluronic acid (low, medium and high MW) (all without taurolidine). These were compared against the same 3 different molecular weights of hyaluronic acid which contained taurolidine, with each hyaluronic acid MW containing target concentrations of 1.5, 3, or 6% taurolidine by weight in the hyaluronic acid hydrogel matrix (Table 1). […] These were also evaluated against a known antimicrobial, gentamicin.

[2] = test system: Pseudomonas aeruginosa (PAO1); assay: as above; assay type: cell-based; details: 20 μl early phase culture in 980 μl formulation
Description: as §1, §2

With Gentamicin the “Remaining bacteria concentrations SA113 (4 hr)” value ([1]; 4 hour exposure) was 3.77E+02, the “Remaining bacteria concentrations SA113 (24 hr)” value ([1]; 24 hour exposure) was 8.33E+00 and the “Remaining bacteria concentrations PA01 (4 hr)” value ([2]; 4 hour exposure) was 0.00E+00. The “Remaining bacteria concentrations PA01 (24 hr)” value ([2]; 24 hour exposure) was 0.00E+00.
